Tests used:
[1] = test system: C. difficile; assay: cytotoxin in filtrates of C. difficile cultures grown in the presence of prostaglandin (Prostaglandin Incubated with C. difficile), titrated on HFF mono-layers; type: cell-based; details: for effectiveness as an antitoxic prostaglandin: by itself, in words; for decrease of the amount of toxin released from C. difficile: assay described in Example 1, pharmacologically practical amount, definition of antitoxic prostaglandin
Experimental: (§1) Forty-five filtrates of C. difficile cultures grown in the presence of different concentrations of 16,16-dimethyl-PGE2 were assayed for cytotoxin. (ATCC 9689 stands for American Type Culture Collection number 9689, and patients 1, 2, 3, and 4 refer to cultures extracted from various hospital patients.) The first 25 cultures were incubated with the prostaglandin (in the concentrations noted) for 24 hr. These cultures were then filtered and the supernate was submitted for cytotoxicity testing. The remaining 20 cultures were incubated without prostaglandin, filtered and then the prostaglandin was added to each supernate prior to cytotoxicity testing. The cytotoxin assay utilized human skin fibroblasts (HFF) as mono-layers in Costar 24 well-trays. The results are presented as the reciprocal of the cytotoxin dilution (serial 10-fold) causing altered cell morphology for 50% of the cells in the mono-layer. (see Table II.) Thus, 1000 means that a 1:1000 dilution of the filtrate caused an altered cell morphology for 50% of the cells in the mono-layer. Therefore, the higher the number, the more cytotoxin is present.

[2] = by acid in the stomach; cited from earlier work
[3] = test system: Human skin fibroblasts (HFF); assay: attempted protection of HFF from cytotoxins from different sources (altered cell morphology); type: cell-based
Experimental: To determine whether the presence of 16,16-dimethyl-PGE2 might interfere with the cytotoxin assay, several concentrations of cytotoxins were assayed in the presence of various concentrations of a prostaglandin.
The cytotoxins used were from hamster cecum, a filtrate of C. difficile broth culture, and the filtate of human feces from a patient with "antibiotic diarrhea". Serial 10-fold dilutions of the cytotoxins were prepared in BME-3% fbs. (BME 3% fbs is basal medium of Eagle with 3% fetal bovine (BOVINE Serum and antibiotics.))
16,16-Dimethyl-PGE2 (5 mg/ml in absolute ethanol) was used and further diluted in absolute ethanol.
Human skin fibroblasts (HFF) monolayers in wells of Costar trays (24 well) were refed with 0.8 ml BME-3% fbs. 0.1 ml of the various prostaglandin concentrations and absolute ethanol alone were added to the appropriate wells. Separate wells were then treated with (0.1 ml) of the appropriate dilution of each cytotoxin. The trays were incubated at 37° and examined microscopically for evidence of altered cell morphology.
Attempted protection of HFF from cytotoxins from different
sources by 16,16-dimethyl-PGE2. The results are expressed as the
number of cells showing evidence of altered morphology due to
cytotoxin. (0 = no change, +1 = 25% of the cells are rounded,
+ 2 = 50% of the cells are rounded, +3 = 75% of the cells are
rounded, and +4 = 100% of the cells are rounded. Tox =
toxic concentration of prostaglandin.)

[4] = test system: C. difficile; assay: cytotoxin assay, prostaglandin added to supernate after incubation of C. difficile (Prostaglandin Added After Incubation), titrated on HFF mono-layers; type: cell-based
Experimental: as §1

CCCCC[C@@](C)(O)/C=C/[C@H]1[C@H](O)CC(=O)[C@@H]1C/C=C\CCCC(=O)O [15(R)-15-methyl-PGE2]
effectiveness as an antitoxic prostaglandin [1]: not highly effective
conversion in mammalian metabolism [2]: converted by acid in the stomach to 15(S)-15-methyl-PGE2

CCCCC[C@](C)(O)/C=C/[C@H]1[C@H](O)CC(=O)[C@@H]1C/C=C\CCCC(=O)O [15(S)-15-methyl-PGE2]
decrease of the amount of toxin released from C. difficile [1]: at least 90%
effectiveness as an antitoxic prostaglandin [1]: effective

CCCCC(C)(C)[C@@](C)(O)/C=C/[C@H]1[C@H](O)CC(=O)[C@@H]1C/C=C\CCCC(=O)O [15(S)-16,16-trimethyl-PGE2]
decrease of the amount of toxin released from C. difficile [1]: at least 90%

CCCCC(C)(C)[C@H](O)/C=C/[C@H]1[C@H](O)CC(=O)[C@@H]1C/C=C\CCCC(=O)O [16,16-dimethyl-PGE2]
cells showing evidence of altered morphology due to cytotoxin ([3]; C. difficile filtrate 1:10, prostaglandin 0.01 mcg/ml): 4
cells showing evidence of altered morphology due to cytotoxin ([3]; C. difficile filtrate 1:10, prostaglandin 0.1 mcg/ml): 4
cells showing evidence of altered morphology due to cytotoxin ([3]; C. difficile filtrate 1:10, prostaglandin 1 mcg/ml): 4
cells showing evidence of altered morphology due to cytotoxin ([3]; C. difficile filtrate 1:10, prostaglandin 10 mcg/ml): 4
cells showing evidence of altered morphology due to cytotoxin ([3]; C. difficile filtrate 1:100, prostaglandin 0.01 mcg/ml): 4
cells showing evidence of altered morphology due to cytotoxin ([3]; C. difficile filtrate 1:100, prostaglandin 0.1 mcg/ml): 4
cells showing evidence of altered morphology due to cytotoxin ([3]; C. difficile filtrate 1:100, prostaglandin 1 mcg/ml): 4
cells showing evidence of altered morphology due to cytotoxin ([3]; C. difficile filtrate 1:100, prostaglandin 10 mcg/ml): 4
cells showing evidence of altered morphology due to cytotoxin ([3]; C. difficile filtrate 1:1000, prostaglandin 0.01 mcg/ml): 3
cells showing evidence of altered morphology due to cytotoxin ([3]; C. difficile filtrate 1:1000, prostaglandin 0.1 mcg/ml): 3
cells showing evidence of altered morphology due to cytotoxin ([3]; C. difficile filtrate 1:1000, prostaglandin 1 mcg/ml): 3
cells showing evidence of altered morphology due to cytotoxin ([3]; C. difficile filtrate 1:1000, prostaglandin 10 mcg/ml): 3
cells showing evidence of altered morphology due to cytotoxin ([3]; Human cytotoxin 1:10, prostaglandin 0.01 mcg/ml): 4
cells showing evidence of altered morphology due to cytotoxin ([3]; Human cytotoxin 1:10, prostaglandin 0.1 mcg/ml): 4
cells showing evidence of altered morphology due to cytotoxin ([3]; Human cytotoxin 1:10, prostaglandin 1 mcg/ml): 4
cells showing evidence of altered morphology due to cytotoxin ([3]; Human cytotoxin 1:10, prostaglandin 10 mcg/ml): 4
cells showing evidence of altered morphology due to cytotoxin ([3]; Human cytotoxin 1:100, prostaglandin 0.01 mcg/ml): 4
cells showing evidence of altered morphology due to cytotoxin ([3]; Human cytotoxin 1:100, prostaglandin 0.1 mcg/ml): 4
cells showing evidence of altered morphology due to cytotoxin ([3]; Human cytotoxin 1:100, prostaglandin 1 mcg/ml): 4
cells showing evidence of altered morphology due to cytotoxin ([3]; Human cytotoxin 1:100, prostaglandin 10 mcg/ml): 3
cells showing evidence of altered morphology due to cytotoxin ([3]; Human cytotoxin 1:1000, prostaglandin 0.01 mcg/ml): 1
cells showing evidence of altered morphology due to cytotoxin ([3]; Human cytotoxin 1:1000, prostaglandin 0.1 mcg/ml): 1
cells showing evidence of altered morphology due to cytotoxin ([3]; Human cytotoxin 1:1000, prostaglandin 1 mcg/ml): 1
cells showing evidence of altered morphology due to cytotoxin ([3]; Human cytotoxin 1:1000, prostaglandin 10 mcg/ml): 1
effect on the interaction of the cytotoxin with the cell ([3]; conclusion from Table III): did not affect the interaction of the cytotoxin with the cell
protecting fibroblasts from morphological changes due to the action of the cytotoxin ([3]; cytotoxins from three different sources): ineffective
Cytotoxin Dilution (reciprocal of the cytotoxin dilution causing altered cell morphology for 50% of the cells) ([1]; Control, 24 hr, prostaglandin 1 mcg/ml): < 10
Cytotoxin Dilution (reciprocal of the cytotoxin dilution causing altered cell morphology for 50% of the cells) ([1]; Control, 24 hr, prostaglandin 10 mcg/ml): < 10
Cytotoxin Dilution (reciprocal of the cytotoxin dilution causing altered cell morphology for 50% of the cells) ([1]; Control, 24 hr, prostaglandin 50 mcg/ml): < 10
amount of toxin with increasing amount of prostaglandin ([1]; Table II overall): as the amount of prostaglandin increases, the amount of toxin decreases
decrease of the amount of toxin released from C. difficile [1]: at least 90%
Cytotoxin Dilution (reciprocal of the cytotoxin dilution causing altered cell morphology for 50% of the cells) ([1]; incubated with C. difficile ATCC #9689, 24 hr, prostaglandin 1 mcg/ml): 100-1000
Cytotoxin Dilution (reciprocal of the cytotoxin dilution causing altered cell morphology for 50% of the cells) ([1]; incubated with C. difficile ATCC #9689, 24 hr, prostaglandin 10 mcg/ml): 100
Cytotoxin Dilution (reciprocal of the cytotoxin dilution causing altered cell morphology for 50% of the cells) ([1]; incubated with C. difficile ATCC #9689, 24 hr, prostaglandin 50 mcg/ml): 10
Cytotoxin Dilution (reciprocal of the cytotoxin dilution causing altered cell morphology for 50% of the cells) ([1]; incubated with C. difficile strain Patient 1, 24 hr, prostaglandin 1 mcg/ml): 100-1000
Cytotoxin Dilution (reciprocal of the cytotoxin dilution causing altered cell morphology for 50% of the cells) ([1]; incubated with C. difficile strain Patient 1, 24 hr, prostaglandin 10 mcg/ml): 10
Cytotoxin Dilution (reciprocal of the cytotoxin dilution causing altered cell morphology for 50% of the cells) ([1]; incubated with C. difficile strain Patient 1, 24 hr, prostaglandin 50 mcg/ml): 10
Cytotoxin Dilution (reciprocal of the cytotoxin dilution causing altered cell morphology for 50% of the cells) ([1]; incubated with C. difficile strain Patient 2, 24 hr, prostaglandin 1 mcg/ml): 10-100
Cytotoxin Dilution (reciprocal of the cytotoxin dilution causing altered cell morphology for 50% of the cells) ([1]; incubated with C. difficile strain Patient 2, 24 hr, prostaglandin 10 mcg/ml): 10-100
Cytotoxin Dilution (reciprocal of the cytotoxin dilution causing altered cell morphology for 50% of the cells) ([1]; incubated with C. difficile strain Patient 2, 24 hr, prostaglandin 50 mcg/ml): < 10
Cytotoxin Dilution (reciprocal of the cytotoxin dilution causing altered cell morphology for 50% of the cells) ([1]; incubated with C. difficile strain Patient 3, 24 hr, prostaglandin 1 mcg/ml): < 10
Cytotoxin Dilution (reciprocal of the cytotoxin dilution causing altered cell morphology for 50% of the cells) ([1]; incubated with C. difficile strain Patient 3, 24 hr, prostaglandin 10 mcg/ml): < 10
Cytotoxin Dilution (reciprocal of the cytotoxin dilution causing altered cell morphology for 50% of the cells) ([1]; incubated with C. difficile strain Patient 3, 24 hr, prostaglandin 50 mcg/ml): < 10
Cytotoxin Dilution (reciprocal of the cytotoxin dilution causing altered cell morphology for 50% of the cells) ([1]; incubated with C. difficile strain Patient 4, 24 hr, prostaglandin 1 mcg/ml): 100
Cytotoxin Dilution (reciprocal of the cytotoxin dilution causing altered cell morphology for 50% of the cells) ([1]; incubated with C. difficile strain Patient 4, 24 hr, prostaglandin 10 mcg/ml): 10-100
Cytotoxin Dilution (reciprocal of the cytotoxin dilution causing altered cell morphology for 50% of the cells) ([1]; incubated with C. difficile strain Patient 4, 24 hr, prostaglandin 50 mcg/ml): 10
Cytotoxin Dilution (reciprocal of the cytotoxin dilution causing altered cell morphology for 50% of the cells) ([4]; ATCC #9689, prostaglandin 1 mcg/ml): 100-1000
Cytotoxin Dilution (reciprocal of the cytotoxin dilution causing altered cell morphology for 50% of the cells) ([4]; ATCC #9689, prostaglandin 10 mcg/ml): 10-100
Cytotoxin Dilution (reciprocal of the cytotoxin dilution causing altered cell morphology for 50% of the cells) ([4]; ATCC #9689, prostaglandin 50 mcg/ml): 10
Cytotoxin Dilution (reciprocal of the cytotoxin dilution causing altered cell morphology for 50% of the cells) ([4]; Patient 1, prostaglandin 1 mcg/ml): 1000
Cytotoxin Dilution (reciprocal of the cytotoxin dilution causing altered cell morphology for 50% of the cells) ([4]; Patient 1, prostaglandin 10 mcg/ml): < 100
Cytotoxin Dilution (reciprocal of the cytotoxin dilution causing altered cell morphology for 50% of the cells) ([4]; Patient 1, prostaglandin 50 mcg/ml): 100
Cytotoxin Dilution (reciprocal of the cytotoxin dilution causing altered cell morphology for 50% of the cells) ([4]; Patient 2, prostaglandin 1 mcg/ml): 10
Cytotoxin Dilution (reciprocal of the cytotoxin dilution causing altered cell morphology for 50% of the cells) ([4]; Patient 2, prostaglandin 10 mcg/ml): 10
Cytotoxin Dilution (reciprocal of the cytotoxin dilution causing altered cell morphology for 50% of the cells) ([4]; Patient 2, prostaglandin 50 mcg/ml): < 10
Cytotoxin Dilution (reciprocal of the cytotoxin dilution causing altered cell morphology for 50% of the cells) ([4]; Patient 3, prostaglandin 1 mcg/ml): < 10
Cytotoxin Dilution (reciprocal of the cytotoxin dilution causing altered cell morphology for 50% of the cells) ([4]; Patient 3, prostaglandin 10 mcg/ml): < 10
Cytotoxin Dilution (reciprocal of the cytotoxin dilution causing altered cell morphology for 50% of the cells) ([4]; Patient 4, prostaglandin 1 mcg/ml): 100-1000
Cytotoxin Dilution (reciprocal of the cytotoxin dilution causing altered cell morphology for 50% of the cells) ([4]; Patient 4, prostaglandin 10 mcg/ml): 100
Cytotoxin Dilution (reciprocal of the cytotoxin dilution causing altered cell morphology for 50% of the cells) ([4]; Patient 4, prostaglandin 50 mcg/ml): 10-100
